Experimental data taken from publication PMC4633020 (Journal of medicinal chemistry, 2015).

Key:
[1] = test system: E. faecium NCTC 7171; experiment: MIC, broth microdilution; assay type: cell-based, Enterococcus faecium; conditions: for antibacterial activity against E. faecium (in words): SAR discussion, E. faecium NCTC 7171; for MIC: Enterococcus faecium, NCTC7171, E. faecium NCTC 7171
[2] = In vitro metabolic stability in human liver S9; assay type: in vitro ADME; conditions: calculated from in vitro half-life in human liver S9
[3] = Plasma-protein binding, equilibrium dialysis; assay type: in vitro ADME; conditions: human plasma
[4] = marketed antibiotics; cited from earlier work

| Molecule | antibacterial activity against E. faecium (in words) [1] | other results |
| --- | --- | --- |
| CC1=C(C(N)=O)C(c2ccccc2)n2nc(SCc3ccccc3)nc2N1 (stereo not shown) [Compound 2] | loss of antibacterial activity |  |
| CCc1ccc(C2C(C(N)=O)=C(C)Nc3nc(SCc4ccccc4)nn32)cc1 (stereo not shown) [Compound 4] |  | MIC [1]: ≤ 8 mg/L |
| CC1=C(C(N)=O)C(c2ccc(O)cc2)n2nc(SCc3ccccc3)nc2N1 (stereo not shown) [Compound 6] | loss of antimicrobial activity |  |
| COc1ccc(C2C(C(N)=O)=C(C)Nc3nc(SCc4ccccc4)nn32)cc1 (stereo not shown) [Compound 7] | devoid of activity |  |
| COc1ccc(C2C(C(N)=O)=C(C)Nc3nc(SCc4ccccc4)nn32)cc1O (stereo not shown) [Compound 8] | loss of antimicrobial activity |  |
| COc1ccc(C2C(C(N)=O)=C(C)Nc3nc(SCc4ccccc4)nn32)cc1OC (stereo not shown) [Compound 9] | loss of antimicrobial activity |  |
| CC1=C(C(N)=O)C(c2ccc(OC(C)C)cc2)n2nc(SCc3ccccc3)nc2N1 (stereo not shown) [Compound 10, 2-(Benzylthio)-7-(4-isopropoxyphenyl)-5-methyl-4,7-dihydro-[1,2,4]triazolo[1,5-a]pyrimidine-6-carboxamide] |  | MIC [1]: ≤ 8 mg/L; Apparent intrinsic clearance [2]: 10.9 mLmin^−1kg^−1; Plasma-protein binding (in words) [3]: high |
| CC1=C(C(N)=O)C(c2ccc(OC(F)(F)F)cc2)n2nc(SCc3ccccc3)nc2N1 (stereo not shown) [Compound 11] | retained activity | MIC [1]: ≤ 8 mg/L |
| CSc1ccc(C2C(C(N)=O)=C(C)Nc3nc(SCc4ccccc4)nn32)cc1 (stereo not shown) [Compound 12] | devoid of activity |  |
| CCSc1ccc(C2C(C(N)=O)=C(C)Nc3nc(SCc4ccccc4)nn32)cc1 (stereo not shown) [Compound 13, 2-(Benzylthio)-7-(4-ethylthiophenyl]-5-methyl-4,7-dihydro[1,2,4]-triazolo[1,5-a]pyrimidine-6-carboxamide] |  | improvement of the anti-E. faecium activity ([1]; compared to the 4-OCH3 (7) and 4-SMe (12) derivatives): 32 fold; Apparent intrinsic clearance [2]: <10.4 mLmin^−1kg^−1; Plasma-protein binding (in words) [3]: high |
| CCN(CC)c1ccc(C2C(C(N)=O)=C(C)Nc3nc(SCc4ccccc4)nn32)cc1 (stereo not shown) [Compound 17] |  | MIC [1]: ≤ 8 mg/L |
| CCN(CC)CCOc1ccc(C2C(C(N)=O)=C(C)Nc3nc(SCc4ccccc4)nn32)cc1 (stereo not shown) [Compound 20] | no activity |  |
| CC1=C(C(N)=O)C(c2ccc(C(F)(F)F)cc2)n2nc(SCc3ccccc3)nc2N1 (stereo not shown) [Compound 21] | retained activity | MIC [1]: ≤ 8 mg/L |
| CC1=C(C(N)=O)C(c2ccc(F)cc2)n2nc(SCc3ccccc3)nc2N1 (stereo not shown) [Compound 22] | did not show any activity |  |
| CC1=C(C(N)=O)C(c2ccc(Cl)cc2)n2nc(SCc3ccccc3)nc2N1 (stereo not shown) [Compound 23] | did not show any activity |  |
| CC1=C(C(N)=O)C(c2ccc(C#N)cc2)n2nc(SCc3ccccc3)nc2N1 (stereo not shown) [Compound 24] | retained activity |  |
| CC1=C(C(N)=O)C(c2ccccc2C(F)(F)F)n2nc(SCc3ccccc3)nc2N1 (stereo not shown) [Compound 27] | inactive |  |
| CC1=C(C(N)=O)C(C2CCCCC2)n2nc(SCc3ccccc3)nc2N1 (stereo not shown) [Compound 42] | devoid of activity |  |

| Molecule | antibacterial activity against E. faecium (in words) [1] | other results |
| --- | --- | --- |
| CCOC(=O)C1=C(C)Nc2nc(SCc3ccccc3)nn2C1c1ccc(N(C)C)cc1 (stereo not shown) [Compound 43] | lost antimicrobial activity |  |
| CNC(=O)C1=C(C)Nc2nc(SCc3ccccc3)nn2C1c1ccc(N(C)C)cc1 (stereo not shown) [Compound 45] | slight reduction of activity |  |
| CN(C)c1ccc(C2C3=C(CCCC3=O)Nc3nc(SCc4ccccc4)nn32)cc1 (stereo not shown) [Compound 46] | abolished activity |  |
| CC1=C(C(=O)Nc2ccccc2)C(c2ccc(N(C)C)cc2)n2nc(SCc3ccccc3)nc2N1 (stereo not shown) [Compound 51] | slight reduction of activity |  |
| CC1=C(C(N)=O)C(c2ccc(N(C)C)cc2)n2nc(SCCNC(=O)OCc3ccccc3)nc2N1 (stereo not shown) [Compound 72] | not tolerated |  |
| CC1=C(C(N)=O)C(c2ccc(C(C)C)cc2)n2nc(SCCNC(=O)OCc3ccccc3)nc2N1 (stereo not shown) [Compound 73] | not tolerated |  |
| CC1=C(C(N)=O)C(c2ccc(C(=O)O)cc2)n2nc(SCCNC(=O)OCc3ccccc3)nc2N1 (stereo not shown) [Compound 74] | not tolerated |  |
| CC1=C(C(N)=O)C(c2ccc(N(C)C)cc2)n2nc(SCc3ccncc3)nc2N1 (stereo not shown) [Compound 75] | loss of activity |  |
| CC1=C(C(N)=O)C(c2ccc(N(C)C)cc2)n2nc(Sc3ccccn3)nc2N1 (stereo not shown) [Compound 76] | loss of activity |  |
| CC1=C(C(N)=O)C(c2ccc(N(C)C)cc2)n2nc(SCc3ccc(C(F)(F)F)cc3)nc2N1 (stereo not shown) [Compound 80] | no activity |  |
| CC1=C(C(N)=O)C(c2ccc(N(C)C)cc2)n2nc(SCc3ccc(OC(F)(F)F)cc3)nc2N1 (stereo not shown) [Compound 81] | no activity |  |
| CC1=C(C(N)=O)C(c2ccc(N(C)C)cc2)n2nc(SCc3ccc(SC(F)(F)F)cc3)nc2N1 (stereo not shown) [Compound 82] | as active as compound 1 |  |
| CC1=C(C(N)=O)C(c2ccc(N(C)C)cc2)n2nc(SCc3ccc([N+](=O)[O-])cc3)nc2N1 (stereo not shown) [Compound 83, 2-(4-Nitrobenzylthio)-7-(4-dimethylaminophenyl)-5-methyl-4,7-dihydro[1,2,4]triazolo[1,5-a]pyrimidine-6-carboxamide] | as good as compound 16 | Apparent intrinsic clearance [2]: <10.4 mLmin^−1kg^−1; Plasma-protein binding (in words) [3]: high |
| CCCCCCCCCC(=O)N[C@@H](Cc1c[nH]c2ccccc12)C(=O)N[C@H](CC(N)=O)C(=O)N[C@@H](CC(=O)O)C(=O)N[C@@H]1C(=O)NCC(=O)N[C@@H](CCCN)C(=O)N[C@@H](CC(=O)O)C(=O)N[C@H](C)C(=O)N[C@@H](CC(=O)O)C(=O)NCC(=O)N[C@H](CO)C(=O)N[C@@H]([C@H](C)CC(=O)O)C(=O)N[C@@H](CC(=O)c2ccccc2N)C(=O)O[C@@H]1C [daptomycin] |  | plasma protein binding [4]: > 91% |
| Cc1onc(-c2ccccc2)c1C(=O)N[C@@H]1C(=O)N2[C@@H]1SC(C)(C)[C@@H]2C(=O)O [oxacillin] |  | plasma protein binding [4]: > 91% |
| CO[C@H]1/C=C/O[C@@]2(C)Oc3c(C)c(O)c4c(O)c(c(/C=N/N5CCN(C)CC5)c(O)c4c3C2=O)NC(=O)/C(C)=C\C=C\[C@H](C)[C@H](O)[C@@H](C)[C@@H](O)[C@@H](C)[C@H](OC(C)=O)[C@@H]1C [rifampicin] |  | plasma protein binding [4]: > 91% |
| teicoplanin |  | plasma protein binding [4]: > 91% |
